Assay results as given in patent US9987329B2, “Methods for treating peripheral nerve damage” (Cornell University, priority 2014, dated 2018).

Tests used:
[1] = tested on: trigeminal ganglion (TG) neuronal cells; assay: Inhibition of VEGF-B induced neurite growth in TG neurons; format: cell-based, mouse; settings: 3 days
Experimental: (§1) Trigeminal ganglion (TG) neuronal cells were obtained and cultured as described previously. Pan, Z., Fukuoka et al., FASEB J. 27, 2756-2767 (2013). To evaluate the effect of VEGF-B on neuronal growth, TG neuronal cells were treated with 10-100 ng/ml recombinant mouse VEGF-B^186 (R&D 767-VE-010). The VEGF-B treatments were replenished every other day. Neurite formation and growth was followed up to 3 days. […] VEGF receptors were inhibited by using neutralizing antibodies against VEGFR1 (R&D AF471), VEGFR2 (R&D MAB4431) and Neuropilin 1 (NRP1) (R&D MAB566). TG cells were incubated in a dose dependent manner with anti-VEGFR1, anti-VEGFR2 or anti-NRP1 for 1 hour prior to the addition of 50 ng/ml VEGF-B. The tyrosine kinase domains of VEGFR2 were inhibited with specific inhibitors by incubating TG neuronal cells with 10 μM SU 1498 (Sigma T4192) or 5 nM Ki 8751 (Sigma K1265) for 1 hr before adding 50 ng/ml VEGF-B. All neurite growth was imaged with an AxioObserver Z1 fluorescence microscope in the YFP channel attached to an AxioCam HRm digital camera (Zeiss) operated by AxioVision 4.0 software. Images were analyzed using Neurolucida 9 (MBF Bioscience) a quantitative nerve tracing software.

[2] = tested on: Human corneal limbal epithelial (HCLE) cells; assay: In vitro scratch wound assay; format: cell-based; settings: 10 ng/ml
Experimental: Human corneal limbal epithelial (HCLE) cells were cultured in 6-well plates until confluency as described. Pan, Z., Fukuoka et al., FASEB J. 27, 2756-2767 (2013). Cells were starved in KSFM medium (gibco 10724-011) without supplements for 24 h. Then a straight-line scratch mark was made in each well with a 200 ul pipette tip. KSFM medium supplemented with VEGF-B^186 (50 ng/ml) or EGF (10 ng/ml, Millipore 01-101) was added to the wells. Scratch areas were imaged at 0, 8, 24 and 48 hours at the same locations using the mark and find module of the Axiovision software and the wound closure analyzed by Photoshop.

[3] = tested on: corneal nerves of Thy-1-YFP mice; assay: Corneal nerve regeneration with combinations of VEGF-A and VEGF-B; format: in vivo, mouse; settings: ligand administered separately, two weeks post-injury (FIG. 14)
Experimental: Thy-1-YFP mice were subjected to cornea epithelium debridement to ablate the superficial nerve endings that innervate the cornea Immediately after injury, the mice were treated with different combinations of VEGF-A and VEGF-B. As shown, combinations of VEGF ligands induce greater nerve regeneration in vivo.
The observed effects were also recapitulated in vivo. Thy-1-YFP neurofluorescent mice were used to induce a corneal epithelium injury that results in ablation of the superficial nerve endings of the cornea. The mice were then treated with different combinations of VEGF-A and VEGF-B, and nerve regeneration was analyzed after two weeks post-injury.

[4] = tested on: trigeminal ganglion (TG) neuronal cells; assay: Trigeminal ganglion neuronal growth assay; format: cell-based, mouse; settings: 50 ng/ml, three days in culture (FIG. 2A)
Experimental: as §1

Molecule: COc1cc2nccc(Oc3ccc(NC(=O)Nc4ccc(F)cc4F)c(F)c3)c2cc1OC [Ki 8751]
- inhibition of VEGF-B induced neurite growth ([1]; 5 nM, 1 hr before 50 ng/ml VEGF-B): does not block

Molecule: CC(C)c1cc(/C=C(\C#N)C(=O)NCCCc2ccccc2)cc(C(C)C)c1O [SU 1498]
- inhibition of VEGF-B induced neurite growth ([1]; 10 μM, 1 hr before 50 ng/ml VEGF-B): does not block

Molecule: EGF: epidermal growth factor (Millipore 01-101), a known inducer of epithelial cell proliferation
- time of complete confluence of the scratch area [2]: 24 h
- time to complete closure of the scratch area [2]: < 24 h
- onset of cell growth into the scratch area ([2]; post-treatment): 8 h

B1: soluble VEGFR1: recombinant human-soluble VEGFR1 (sVEGFR1/sFlt1, CellSciences CRF103) (protein)
chain: SKLKDPELSLKGTQHIMQAGQTLHLQCRGEAAHKWSLPEMVSKESERLSITKSACGRNGKQFCSTLTLNTAQANHTGFYSCKYLAVPTSKKKETESAIYIFISDTGRPFVEMYSEIPEIIHMTEGRELVIPCRVTSPNITVTLKKFPLDTLIPDGKRIIWDSRKGFIISNATYKEIGLLTCEATVNGHLYKTNYLTHRQTNTIIDVQISTPRPVKLLRGHTLVLNCTATTPLNTRVQMTWSYPDEKNKRASVRRRIDQSNSHANIFYSVLTIDKMQNKDKGLYTCRVRSGPSFKSVNTSVHIYDKAFITVKHRKQQVLETVAGKRSYRLSMKVKAFPSPEVVWLKDGLPATEKSARYLTRGYSLIIKDVTEEDAGNYTILLSIKQSNVFKNLTATLIVNVKPQIYEKAVSSFPDPALYPLGSRQILTCTAYGIPQPTIKWFWHPCNHNHSEARCDFCSNNEESFILDADSNMGNRIESITQRMAIIEGKNKMASTLVVADSRISGIYICIASNKVGTVGRNISFYITDVPNGFHVNLEKMPTEGEDLKLSCTVNKFLYRDVTWILLRTVNNRTMHYSISKQKMAITKEHSITLNLTIMNVSLQDSGTYACRARNVYTGEEILQKKEITIRGEHCNKKAVFSRISKFKSTRNDCTTQSNVKH
- inhibition of VEGF-B induced neurite growth ([1]; equal molar concentration (2.6 nM) with 50 ng/ml VEGF-B): inhibited

B2: VEGF-A: vascular endothelial growth factor A; 232 amino acid protein, NextProt NX_P15692, SEQ ID NO. 2 (protein, listed as Homo sapiens)
chain: MNFLLSWVHWSLALLLYLHVKFMDVYQRSYCHPIETLVDIFQEYPDEIEYIFKPSCVPLMRCGGCCNDEGLECVPTEESNITMQIMRIKPHQGQHIGEMSFLQHNKCECRPKKDRARQEKKSVRGKGKGQKRKRKKSRYKSWSVYVGARCCLMPWSLPGPHPCGPCSERRKHLFVQDPQTCKCSCKNTDSRCKARQLELNERTCRCDKPRRHAKWSQAAPMAEGGGQNHHEV
- nerve regeneration [3]: induced greater nerve regeneration
- pattern of neurite growth (elongation and branching) [4]: mainly neurite elongation with few branching nodes
